Test [1] in a line: A Cell Based Secondary Assay To Explore Cytotoxicity of Compounds that Sensitize Mycobacterium Tuberculosis to Beta-Lactam Antibiotics. The class given is functional.
Test [2] deals with T1, Estrogen receptor (Homo sapiens, UniProt P03372).
T1 sequence (P03372 whole entry): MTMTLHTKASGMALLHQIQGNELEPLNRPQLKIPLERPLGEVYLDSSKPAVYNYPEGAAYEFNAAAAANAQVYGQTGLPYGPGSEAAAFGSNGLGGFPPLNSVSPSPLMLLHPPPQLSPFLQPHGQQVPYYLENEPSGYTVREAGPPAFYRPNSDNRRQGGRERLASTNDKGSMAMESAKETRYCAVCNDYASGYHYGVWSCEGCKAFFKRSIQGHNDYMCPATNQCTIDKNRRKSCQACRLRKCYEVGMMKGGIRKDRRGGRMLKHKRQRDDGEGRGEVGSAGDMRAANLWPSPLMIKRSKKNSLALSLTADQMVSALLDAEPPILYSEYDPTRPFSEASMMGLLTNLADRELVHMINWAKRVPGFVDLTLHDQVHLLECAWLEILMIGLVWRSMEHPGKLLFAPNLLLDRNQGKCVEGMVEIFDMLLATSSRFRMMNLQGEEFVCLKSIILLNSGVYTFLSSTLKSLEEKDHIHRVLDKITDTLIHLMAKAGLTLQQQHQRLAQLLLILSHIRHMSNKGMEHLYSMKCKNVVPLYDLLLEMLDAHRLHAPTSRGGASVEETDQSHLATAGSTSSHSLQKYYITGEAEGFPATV

The nature of test [3]: viability of PTEN-deleted HCT116 cells – cell-based, HCT116 PTEN knockout, dose response (AID 1047).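 Further: HCT116 colon tumor cells with PTEN knocked out; cells exposed to compound for 60 hours before readout; potency for loss of cell viability measured by luminescence.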 It counts as functional.
The nature of test [4]: viability of HCT116 lacking mutant beta-catenin – cell-based, human colon tumor, dose response (AID 1045).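 Further: HCT116 colon tumor cells with beta catenin knocked out; cells exposed to compound for 60 hours.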 It counts as functional.
The nature of test [5]: viability of uninfected HEp-2 cells – cell-based, HTS, cytotoxicity control for RSV inhibitor project, dose response (AID 2410). The class given is functional. The conditions noted are these: human respiratory syncytial virus.
The nature of test [6]: Luminescence Cell-Based Dose Response HTS to Identify Activators of Luciferase Translation or Activity in H4 […] Cells. [Related pubchem assays: 1829 (Project Summary), 1814 (Primary HTS)]. It counts as functional.
Test [7] can be described thus: Luminescence Cell-Based Dose Confirmation HTS to Identify Activators of 5'UTR Stem-Loop Driven Alpha-Synuclein mRNA Translation in H4 Neuroglioblastoma Cells. [Related pubchem assays: 1829 (Project Summary), 1814 (Primary HTS)]. It counts as functional.
In test [8] the target is T2, Sentrin-specific protease 8 (Homo sapiens, UniProt Q96LD8).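 Further: luminescence read-out of SENP8 inhibition, dose-response confirmation following an ultra-high-throughput screen.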
T2 sequence (Q96LD8 whole entry): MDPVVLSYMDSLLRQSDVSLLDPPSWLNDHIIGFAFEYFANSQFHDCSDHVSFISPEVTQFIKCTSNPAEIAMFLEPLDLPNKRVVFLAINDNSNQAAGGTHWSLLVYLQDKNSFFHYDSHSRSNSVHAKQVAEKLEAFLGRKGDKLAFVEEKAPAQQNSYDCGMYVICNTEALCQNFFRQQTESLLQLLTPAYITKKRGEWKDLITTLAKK
The class given is functional.

Test [9] addresses T3, Sentrin-specific protease 7 (Homo sapiens, UniProt Q9BQF6).
T3 sequence (Q9BQF6 whole entry): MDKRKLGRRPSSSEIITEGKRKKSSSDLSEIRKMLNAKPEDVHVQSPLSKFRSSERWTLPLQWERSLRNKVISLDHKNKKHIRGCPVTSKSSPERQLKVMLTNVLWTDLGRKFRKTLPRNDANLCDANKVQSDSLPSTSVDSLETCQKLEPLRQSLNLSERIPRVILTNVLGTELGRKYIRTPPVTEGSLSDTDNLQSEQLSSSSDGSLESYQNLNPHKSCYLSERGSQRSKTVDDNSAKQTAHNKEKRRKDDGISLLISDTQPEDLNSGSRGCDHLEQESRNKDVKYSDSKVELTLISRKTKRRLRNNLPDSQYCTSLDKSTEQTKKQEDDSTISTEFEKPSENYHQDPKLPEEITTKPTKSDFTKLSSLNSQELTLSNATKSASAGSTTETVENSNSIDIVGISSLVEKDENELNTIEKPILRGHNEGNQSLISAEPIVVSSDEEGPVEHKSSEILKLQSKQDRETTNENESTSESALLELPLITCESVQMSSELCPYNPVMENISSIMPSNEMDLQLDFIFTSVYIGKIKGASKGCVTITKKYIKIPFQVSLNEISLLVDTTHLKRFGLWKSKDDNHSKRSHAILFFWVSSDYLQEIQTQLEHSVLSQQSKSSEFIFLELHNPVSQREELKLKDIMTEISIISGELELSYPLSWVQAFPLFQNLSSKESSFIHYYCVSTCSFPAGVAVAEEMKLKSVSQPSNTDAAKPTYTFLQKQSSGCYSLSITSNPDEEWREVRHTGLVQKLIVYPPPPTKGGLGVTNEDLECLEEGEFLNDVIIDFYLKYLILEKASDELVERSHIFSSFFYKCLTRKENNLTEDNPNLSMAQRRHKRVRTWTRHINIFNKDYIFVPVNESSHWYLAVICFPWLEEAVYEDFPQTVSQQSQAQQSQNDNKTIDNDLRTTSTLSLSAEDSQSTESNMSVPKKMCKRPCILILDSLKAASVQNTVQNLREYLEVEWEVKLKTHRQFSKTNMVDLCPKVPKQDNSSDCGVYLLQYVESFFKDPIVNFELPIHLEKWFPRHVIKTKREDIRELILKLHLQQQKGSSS
It counts as functional.

The target of test [10] is T4, Caspase-3 (Homo sapiens, UniProt P42574).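 Further: Dose-response selectivity test against caspase-3 for candidate inhibitors of sentrin-specific proteases (SENPs).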
T4 sequence (P42574 whole entry): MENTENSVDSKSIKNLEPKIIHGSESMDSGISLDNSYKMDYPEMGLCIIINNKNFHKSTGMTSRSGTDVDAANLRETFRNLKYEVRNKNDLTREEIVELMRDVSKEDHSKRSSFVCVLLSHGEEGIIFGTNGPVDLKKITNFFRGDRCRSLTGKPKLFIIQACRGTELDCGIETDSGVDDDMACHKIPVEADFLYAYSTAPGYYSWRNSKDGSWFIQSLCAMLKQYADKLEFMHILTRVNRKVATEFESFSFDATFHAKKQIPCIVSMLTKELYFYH
The class given is functional.

Test [11] addresses Estrogen receptor beta (Homo sapiens, UniProt Q92731).
The target of test [12] is T5, Sentrin-specific protease 6 (Homo sapiens, UniProt Q9GZR1).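 Further: Luminescence-based dose-response confirmatory assay of SENP6 inhibition, following up an ultra-high-throughput screen.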
T5 sequence (Q9GZR1 whole entry): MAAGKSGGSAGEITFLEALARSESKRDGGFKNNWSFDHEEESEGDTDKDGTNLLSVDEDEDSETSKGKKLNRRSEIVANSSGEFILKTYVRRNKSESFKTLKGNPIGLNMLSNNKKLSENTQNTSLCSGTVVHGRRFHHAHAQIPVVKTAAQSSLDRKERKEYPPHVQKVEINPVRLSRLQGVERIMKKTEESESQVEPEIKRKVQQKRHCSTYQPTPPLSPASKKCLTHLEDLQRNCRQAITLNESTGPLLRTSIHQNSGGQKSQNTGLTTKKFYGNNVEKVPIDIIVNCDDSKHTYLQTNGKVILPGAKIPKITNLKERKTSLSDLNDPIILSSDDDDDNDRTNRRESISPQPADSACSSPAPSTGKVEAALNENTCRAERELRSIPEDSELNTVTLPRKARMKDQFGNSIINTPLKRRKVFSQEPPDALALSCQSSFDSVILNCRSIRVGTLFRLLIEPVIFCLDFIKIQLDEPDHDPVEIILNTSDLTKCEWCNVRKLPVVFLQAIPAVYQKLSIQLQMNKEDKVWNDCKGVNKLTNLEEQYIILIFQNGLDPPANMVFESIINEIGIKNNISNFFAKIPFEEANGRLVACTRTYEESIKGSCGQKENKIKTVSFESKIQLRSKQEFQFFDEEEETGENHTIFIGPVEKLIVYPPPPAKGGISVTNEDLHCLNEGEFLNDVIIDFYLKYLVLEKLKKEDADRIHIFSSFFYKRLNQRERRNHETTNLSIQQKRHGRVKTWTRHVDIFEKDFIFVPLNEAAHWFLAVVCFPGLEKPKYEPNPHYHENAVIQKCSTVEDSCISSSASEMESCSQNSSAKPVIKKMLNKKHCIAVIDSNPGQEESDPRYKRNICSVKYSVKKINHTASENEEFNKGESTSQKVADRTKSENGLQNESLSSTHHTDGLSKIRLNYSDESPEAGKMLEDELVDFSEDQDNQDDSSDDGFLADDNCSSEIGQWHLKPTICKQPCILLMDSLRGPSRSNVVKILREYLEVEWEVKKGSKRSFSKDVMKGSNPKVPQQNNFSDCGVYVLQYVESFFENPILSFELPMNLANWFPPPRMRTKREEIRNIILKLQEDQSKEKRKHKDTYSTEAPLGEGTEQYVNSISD
The class given is functional.

In test [13] the test system is H4. Put plainly: Luminescence Cell-Based Dose Response HTS to Identify Activators of 5'UTR Stem-Loop Driven Prion Protein mRNA Translation in H4 Neuroglioblastoma Cells. [Related pubchem assays: 1829 (Project Summary), 1814 (Primary HTS)]. It counts as functional. The conditions noted are these: Homo sapiens.

This is an account of results in ChEMBL document CHEMBL1201862, “PubChem BioAssay data set” (2004).

Each structure is given as a SMILES string. Activity calls are given as the source filed them.

Sequence of Estrogen receptor beta (Q92731 whole entry): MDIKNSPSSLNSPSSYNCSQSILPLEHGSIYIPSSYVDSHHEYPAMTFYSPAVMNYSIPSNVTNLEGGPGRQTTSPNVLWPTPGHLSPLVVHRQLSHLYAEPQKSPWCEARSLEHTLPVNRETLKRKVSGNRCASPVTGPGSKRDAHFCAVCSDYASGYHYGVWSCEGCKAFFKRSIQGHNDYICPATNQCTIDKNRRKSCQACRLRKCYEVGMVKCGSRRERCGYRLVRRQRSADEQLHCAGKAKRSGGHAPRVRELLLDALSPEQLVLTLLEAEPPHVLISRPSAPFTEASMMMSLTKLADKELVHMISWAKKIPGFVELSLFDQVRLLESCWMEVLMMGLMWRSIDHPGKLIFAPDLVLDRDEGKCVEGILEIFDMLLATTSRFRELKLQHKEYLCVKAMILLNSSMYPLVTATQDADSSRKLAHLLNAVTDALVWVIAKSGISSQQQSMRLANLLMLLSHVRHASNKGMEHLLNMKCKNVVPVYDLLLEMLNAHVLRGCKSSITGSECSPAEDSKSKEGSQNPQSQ

As to `CCC(C)NCCOCCOc1ccc(Cl)c2ccccc12` (stereo not drawn), the cytotoxic concentration (CC50) in [1] is 18.4 µM (active).

Regarding `Cc1nc2sc3c(c2c2nnc(SCC(=O)NCc4ccco4)n12)CCCC3`, in [1], the CC50 is 31.8 µM (active).

As for `COC(=O)c1ccc2c(c1)N(Cc1nc(-c3cccc(C)c3)oc1C)C(=O)C1CCCN21` (stereo not drawn), the IC50 in [2] is given as > 50 µM (not active).

Consider `Cc1ccsc1/C=N/Nc1ncc(Cl)cc1Cl`, for which the half-maximal effective concentration (EC50) in test [3] was 12.9 µM (active); in [4] it was 15.5 µM (active). In addition, the CC50 in test [1] was 32.4 µM (active).

As to `COC(=O)C1=C(C)NC(=O)/C1=C\c1cc(C)n(-c2c(C)cccc2C)c1C`, the CC50 is > 40 µM (active) in [1] and 1.88 µM (active) in [5].

Regarding `c1ccc(-c2nc(C3CCCCC3)no2)cc1`, the EC50 was 896 nM (active) in test [6], 32.8 µM (active) in test [7] and > 120 µM (not active) in test [13]. Further, the IC50 in test [8] is > 100 µM (inactive); in test [9], 23.2 µM (active); in [10], 57.1 µM (active); in test [11], > 50 µM (not active); in test [12] it was 66.3 µM (active).

For `Cc1cc(C)n2nc(SCc3cc(=O)oc4cc(O)ccc34)nc2n1`, in test [2], the IC50 is 10.1 µM (active).

For `CC(=O)N(C(C)=O)c1c(C#N)c(C)n(-c2ccccc2)c1C(=O)c1ccccc1`, the IC50 in [2] is > 50 µM (not active).
